Experimental data: patent US20260091147A1, “METHOD FOR DETECTING INNATE IMMUNE ACTION IN VIVO USING GPR84-PET” (The Board of Trustees of the Leland Standford Junior …, priority 2023, published 2026)
Where “and” joins values, the source holds several entries; their conditions need not be identical. Equal values may be shown once.

Legend:
[1] = biological target: T1, GPR84 (Homo sapiens, UniProt Q9NQS5); experiment: Radiotracer cell binding, hGPR84-HEK-293 vs control HEK-293 cells, with or without GLPG1205 block; type: cell-based; design: host or cells: HEK-293 cells, lentivirally transduced, puromycin-selected monoclonal line; details: for fold higher binding to hGPR84-HEK-293 cells vs control cells: 40 min incubation; for reduction of tracer binding in hGPR84-HEK293 cells by GLPG1205: co-incubation with GLPG1205 35 μM (1000× by mass), 40 min
Method: GPR84-transduced HEK-293 cells and control HEK-293 cells were plated at a concentration of 3×10^5 cells per well in media (DMEM with 10% FBS and 1% anti-anti) into three 12-well plates 16-24 hr prior to the cell binding assay. Once cells reached ˜90% confluency, the radiotracer was prepared. […] The radiotracer was diluted in DMEM without FBS or antibiotic to yield a 30 mL solution where the amount of activity was 25 μCi in 500 μL. The first 12-well plate was incubated for 20 minutes at 37° C. and 5% CO2 in air while the next was incubated for 40 minutes at the same conditions. Cells were subsequently washed with PBS, trypsinized, resuspended in DMEM+10% FBS, and pipetted into gamma counting tubes at 500 μL volume. Radioactivity levels bound to cells were measured in a gamma counter (Hidex Oy, Helsinki, Finland), and cell counts were recorded using Trypan blue and an automatic cell counter to normalize radioactivity levels to cell count.
At the indicated time points, plates were placed on ice, washed three times with ice-cold phosphate-buffered saline (PBS), and trypsinized (150 μL per well) for 2 min at 37° C. The trypsin was neutralized by adding 600 μL DMEM containing 10% FBS (original cell culture media) to each well. […] Gamma counting was performed to quantitate percentage radiotracer uptake by the cells and decay-corrected radioactivity was determined (Hidex automated gamma counter). Finally, cells in each gamma counting tube were counted by using the Countess cell counter (Life Technologies). Cell binding was expressed in terms of % uptake/million cells.
GPR84-transduced HEK-293 cells and control HEK-293 cells from Creative Biogene were plated at a concentration of 3×10^5 cells per well in media (DMEM with 10% FBS and 1% anti-anti) into a 12-well plate for 16-24 hr. HEK-293 cells were stably transduced via the following process from Creative Biogene: construction of pLVX-CMV-Human-GPR84-PGK-Puro lentiviral expression plasmid, lentivirus production, lentivirus transduction, puromycin selection of polyclonal stable HEK293-Human-GPR84 cells, screening of monoclonal stable HEK293-Human-GPR84 cells via limited dilution, validation using qPCR, then mycoplasma detection by PCR and Lonza kit. Once cells reached ˜90% confluency, the radiotracer was prepared. The radiotracer was diluted in DMEM without FBS or antibiotic to yield a 30 mL solution such that the amount of activity was 50 μCi/mL for ^11C or 2 μCi/mL for ^18F. […] The 12-well plate was incubated for 40 min at 37° C. and 5% CO2 in air. […] Radioactivity levels bound to cells were measured in a gamma counter (Hidex Oy, Helsinki, Finland), and cell counts were recorded using Trypan blue and an automatic cell counter to normalize radioactivity levels to cell count.

[2] = biological target: T1, GPR84; experiment: In vitro autoradiography of human colon sections, active UC vs healthy; type: binding; design: from tissue; host or cells: human colon sections, active ulcerative colitis and matched healthy samples; details: for tracer binding in active UC colon tissue vs matched healthy samples: 5 μm sections; for tracer signal in UC colon tissue after pre-blocking with GLPG1205: 1000× GLPG1205 by mass
Method: To investigate alterations in GPR84 mRNA expression under pro-inflammatory conditions, quantitative polymerase-chain reaction was performed using mouse brain and human monocyte-derived macrophage cells (hMDMs) treated with lipopolysaccharides (LPS) 24 hr prior to RNA extraction. [^11C]GLPG38 and [^18F]MGX-110S were made via [^11C]methylation of the desmethyl precursor and by copper mediated [^18F]fluorination of Bpin precursor respectively. Binding specificities of both tracers were assessed using human GPR84-stably-expressing human embryonic kidney cells (HEK-293) versus control HEK-293 cells. [^11C]GLPG38 binding was also assessed in hMDMs+/−treatment with LPS. Dynamic PET/CT imaging of healthy mice was commenced just prior to injection of [^11C]GLPG38 (100-150 μCi) or [^18F]MGX-110S (60-120 μCi) to determine biodistribution and kinetics. In vitro autoradiography (ARG) of human colon sections (5 μm) was conducted to test the ability of each tracer to detect innate immune activation in active UC.

[3] = system: human monocyte-derived macrophages (hMDMs); experiment: hMDM radioactive cell binding assay, with or without LPS; type: cell-based; details: LPS 100 ng/mL; for tracer signal in LPS-challenged hMDMs after co-incubation with GLPG1205: GLPG1205 block
Method: CD14^+ monocytes isolated from PBMCs from human peripheral blood were plated 10×10^6 cells per 10 cm petri dish in 8-10 mL complete growth medium (for quantitative PCR) or 10^6-10^5 cells per well in 1 mL complete growth medium into one 12-well plate per blood donor (radioactive cell binding) and incubated 7-10 days at 5% CO2 in air at 37° C. These cells were then treated with 100 ng/mL LPS in complete growth medium 24 hr or 72 hr prior to experimentation according to previous working concentrations in the literature.
Human monocyte-derived macrophages (hMDMs) were plated at a concentration of 10^6-10^5 cells per well in media (RPMI 1640+glutamax with 10% FBS, 1% anti-anti, and 50 ng/mL M-CSF) into one 12-well plate per blood donor. Once cells adhered to the plate (˜24 hr), 100 ng/mL lipopolysaccharides (LPS) was applied to two of the three rows of the plate. 24 hr later, the [^11C]GLPG38, [^11C]MGX-10S, or [^18F]MGX-110S radiotracer was prepared. The radiotracer was diluted in RPMI 1640 without FBS or antibiotic to yield a 30 mL solution such that the amount of activity was 50 μCi/mL for ^11C or 2 μCi/mL for ^18F. Additionally, a blocking solution was prepared consisting of 35 μM GLPG1205 dissolved in DMSO and added to RPMI 1640 media+tracer solution. The 12-well plates were incubated for 30 min at […] and 5% CO2 in air. Following incubation, the radioactive media was removed and replaced with 500 μL fresh media, and a 10 min efflux was conducted. After efflux, the media was collected into a gamma counting tube to measure supernatant, and the cells were washed with PBS, trypsinized, resuspended in RPMI 1640+glutamax+10% FBS, then pipetted into gamma counting tubes at 500 μL volume.
Radioactivity levels bound to cells were measured in a gamma counter (Hidex Oy, Helsinki, Finland), and cell counts were recorded using Trypan blue and an automatic cell counter to normalize radioactivity levels to cell count.

T1 sequence (Q9NQS5 whole entry): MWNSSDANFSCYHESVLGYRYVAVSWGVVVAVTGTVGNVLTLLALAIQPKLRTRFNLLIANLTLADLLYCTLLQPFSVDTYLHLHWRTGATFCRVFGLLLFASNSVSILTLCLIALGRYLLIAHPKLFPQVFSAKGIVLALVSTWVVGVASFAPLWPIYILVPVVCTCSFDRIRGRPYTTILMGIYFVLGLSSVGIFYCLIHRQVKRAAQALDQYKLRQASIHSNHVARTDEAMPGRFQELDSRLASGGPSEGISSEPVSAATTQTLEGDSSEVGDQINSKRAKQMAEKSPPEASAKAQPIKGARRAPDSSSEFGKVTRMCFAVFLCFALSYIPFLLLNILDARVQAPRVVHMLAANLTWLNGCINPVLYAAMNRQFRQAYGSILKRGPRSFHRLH

SMILES | fold higher binding to hGPR84-HEK-293 cells vs control cells [1] | reduction of tracer binding in hGPR84-HEK293 cells by GLPG1205 [1] | tracer binding in active UC colon tissue vs matched healthy samples [2] | tracer signal in UC colon tissue after pre-blocking with GLPG1205 [2] | tracer binding in LPS-challenged hMDMs compared to unstimulated cells [3] | tracer signal in LPS-challenged hMDMs after co-incubation with GLPG1205 [3]
O=c1nc(OC[C@@H]2COCCO2)cc2n1CCc1cc([18F])ccc1-2 [^18F-MGX-110S] | 33.4 fold and 25 fold | > 90% | marked increase of binding | markedly attenuated | significantly higher binding | reduced to baseline
Cc1cc2c(cc1O[11CH3])CCn1c-2c(C)c(OC[C@@H]2COCCO2)cc1=O [[^11C]GLPG38] | 13.5 fold | 90% and > 90% | marked increase of binding | markedly attenuated | significantly higher binding | reduced to baseline
